# Reference: patent US8853236B2, “Formulations containing clopidogrel and sulfoalkyl ether cyclodextrin and methods of use” (Cydex Pharmaceuticals, Inc., priority 2007, dated 2014)
# Legend:
# [1] = in vivo; cited from earlier work
# animals = details: in animals; cited from earlier work
# [2] = Competitive binding study of clopidogrel bisulfate and aspirin with SAE-CD (Example 22); assay type: physicochemical; details: pH ~5.5
# Method: In this example, excess clopidogrel bisulfate was added to solutions containing fixed amounts of SAE-CD and varying amounts of aspirin. FIG. 7 depicts the results of a competitive binding study. […] Thus, in a formulation containing both clopidogrel and aspirin, the formulation may or may not require additional SAE-CD to solubilize both ingredients than would be required to solubilize either component individually.
# The competitive binding study was conducted using clopidogrel bisulphate and aspirin (ASA, acetyl salicylic acid). The work was conducted on an auto-titrator such that the pH was maintained at ˜5.5 using sodium hydroxide. The required amount of SBE-β-CD and aspirin was first solubilized in 0.2 μm Millipore filtered water then transferred to the auto-titrator.
# After equilibration, the solutions were sampled and analyzed for clopidogrel content.
# [3] = tested on: ADP-induced platelet aggregation; details: i.v., 0.1-300 mg clopidogrel
# Method: The response was determined as percent of platelet aggregation inhibition following exposure of the subjects' plasma ex-vivo to ADP (5 μM).
# Blood samples for determination of ADP-induced platelet aggregation inhibition using the impedance method (see Dyszkiewicz-Korpanty et al. above) were obtained from arm #2 (the arm not used for dosing) at baseline (check-in, Day −1), 15 and 30 minutes, and 2, 5, and 24 hours after dose initiation.
# Maximum % platelet inhibition and area under the % platelet inhibition curve was calculated for each individual and summarized by treatment group
# platelet aggregation = details: subjects who were non-responders to clopidogrel (10-300 mg) perorally
# [4] = pH 5.6, 37° C., 0.1M phosphate buffer; cited from earlier work
# phosphodiesterase = details: cited from earlier work
smiles,measurement,setting,value
"COC(=O)[C@@H](c1ccccc1Cl)N1CCc2sccc2C1 (single isomer, unassigned) [(R)-enantiomer of clopidogrel]",antithrombotic activity,[1],devoid of antithrombotic activity
same,convulsions,animals,can provoke convulsions
"CC(=O)Oc1ccccc1C(=O)O [aspirin, acetyl salicylic acid]",binding with SAE-CD in a solution containing SAE-CD and clopidogrel salt,[2],binds competitively
"COC(=O)[C@H](c1ccccc1Cl)N1CCc2sccc2C1.O=S(=O)(O)O [clopidogrel bisulfate, methyl (+)-(S)-α-(2-chlorophenyl)-6,7-dihydrothieno[3,2-c]pyridine-5(4H)-acetate sulfate (1:1)]","time to onset of the therapeutic effect (platelet aggregation inhibition, 5 μM ADP ex vivo)",[3],≤ 15 min
same,subjects deemed responders after parenteral administration,platelet aggregation,9-25%
same,t90 toward hydrolysis,[4],about 52.7 days
same,inhibition of phosphodiesterase activity,phosphodiesterase,does not inhibit
